Biological target: NACHT, LRR and PYD domains-containing protein 3 (Homo sapiens, UniProt Q96P20)
Test: Evaluation of NLRP3 Inflammasome Inhibitory Activity Assay
Method: The NLRP3 inflammasome inhibitory activity of test compounds were evaluated CM the basis of the inhibitory activity of the IL-1β, production in THP1-Null cells (Product Number: thp-null, InvivoGen). […] A solution containing a test compound (20 μL/well) was added to test compound-setting wells. […] The supernatant of the culture was cryonically stored (set at −20° C.) until measurement of IL-1β.

Sequence of NACHT, LRR and PYD domains-containing protein 3 (Q96P20 whole entry, the tested form may be a part): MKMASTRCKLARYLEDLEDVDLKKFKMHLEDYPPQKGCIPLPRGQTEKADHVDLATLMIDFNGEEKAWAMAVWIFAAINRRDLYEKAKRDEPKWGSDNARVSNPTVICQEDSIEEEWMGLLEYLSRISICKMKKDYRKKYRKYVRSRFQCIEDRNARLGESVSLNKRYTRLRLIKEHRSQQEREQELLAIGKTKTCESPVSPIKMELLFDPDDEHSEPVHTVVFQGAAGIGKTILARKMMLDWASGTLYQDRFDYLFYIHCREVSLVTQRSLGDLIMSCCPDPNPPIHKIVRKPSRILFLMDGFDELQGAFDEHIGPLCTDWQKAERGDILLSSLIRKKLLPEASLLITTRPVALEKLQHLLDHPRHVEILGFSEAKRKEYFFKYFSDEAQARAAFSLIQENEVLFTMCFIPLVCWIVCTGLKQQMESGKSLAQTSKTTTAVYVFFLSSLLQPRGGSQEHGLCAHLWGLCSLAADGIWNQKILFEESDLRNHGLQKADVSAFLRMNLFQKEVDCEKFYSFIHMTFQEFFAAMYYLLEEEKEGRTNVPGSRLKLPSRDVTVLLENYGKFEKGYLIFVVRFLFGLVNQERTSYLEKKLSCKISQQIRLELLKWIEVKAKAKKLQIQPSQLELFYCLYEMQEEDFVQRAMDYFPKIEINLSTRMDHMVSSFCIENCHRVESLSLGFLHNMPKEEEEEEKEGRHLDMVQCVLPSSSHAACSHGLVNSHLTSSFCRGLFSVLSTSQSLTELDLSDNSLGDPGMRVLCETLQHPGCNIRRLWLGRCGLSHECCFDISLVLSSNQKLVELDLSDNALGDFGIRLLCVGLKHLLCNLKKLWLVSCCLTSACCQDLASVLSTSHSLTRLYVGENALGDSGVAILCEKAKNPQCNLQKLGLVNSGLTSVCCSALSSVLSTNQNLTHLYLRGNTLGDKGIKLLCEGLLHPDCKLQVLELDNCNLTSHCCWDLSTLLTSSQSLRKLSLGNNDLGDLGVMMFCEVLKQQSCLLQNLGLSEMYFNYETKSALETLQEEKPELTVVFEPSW

SMILES	IC50 [nM]
Cc1ccc(C(F)(F)F)cc1Nc1nc(C(=O)NS(=O)(=O)N2[C@H](C)CCC[C@@H]2C)co1 [US20230399319, Example 2-053]	89
CCCC1CCCN(S(=O)(=O)NC(=O)c2coc(Nc3cc(C(F)(F)F)ccc3C)n2)CC1 (stereo not drawn) [US20230399319, Example 2-233]	480
CCOCC1CCN(S(=O)(=O)NC(=O)c2coc(Nc3cc(C)c(F)cc3C)n2)CCO1 (stereo not drawn) [US20230399319, Example 2-340]	12
